Like-named read-outs stand apart in the source and are kept apart here.
Key:
HOP-92 = assay: in vitro test at 1.0×10^−5 M, Non-small cell lung cancer cell; format: cell-based; details: 1.0×10^−5 molal concentration (M)
PC-3 = details: for TGI: PC-3
LOX IMV1 = assay: in vitro test at 1.0×10^−5 M, Skin cancer cell; format: cell-based; details: 1.0×10^−5 molal concentration (M)
MALME-3M = assay: in vitro test at 1.0×10^−5 M, Skin cancer cell; format: cell-based; details: 1.0×10^−5 molal concentration (M)
SK-MEL-2 = assay: in vitro test at 1.0×10^−5 M, Skin cancer cell; format: cell-based; details: 1.0×10^−5 molal concentration (M)
OVCAR-4 = assay: in vitro test at 1.0×10^−5 M, Ovary cancer cell; format: cell-based; details: 1.0×10^−5 molal concentration (M)
CCRF-CEM = assay: cells; details: Homo sapiens
DU-145 = details: for TGI: DU-145
SF-268 = assay: NCI DTP in-vitro dose response, CNS Cancer; format: cell-based
OVCAR-8 = assay: NCI DTP in-vitro dose response, Ovarian Cancer; format: cell-based
KM12 = assay: NCI DTP in-vitro dose response, Colon Cancer; format: cell-based
BT-549 = assay: NCI DTP in-vitro dose response, Breast Cancer; format: cell-based
CAKI-1 = assay: NCI DTP in-vitro dose response, Renal Cancer; format: cell-based
TK-10 = assay: NCI DTP in-vitro dose response, Renal Cancer; format: cell-based
786-0 = assay: NCI DTP in-vitro dose response, Renal Cancer; format: cell-based
LOX IMVI = assay: NCI DTP in-vitro dose response, Melanoma; format: cell-based
HCC-2998 = assay: NCI DTP in-vitro dose response, Colon Cancer; format: cell-based
HCT-15 = assay: NCI DTP in-vitro dose response, Colon Cancer; format: cell-based
U251 = assay: NCI DTP in-vitro dose response, CNS Cancer; format: cell-based
SW-620 = assay: NCI DTP in-vitro dose response, Colon Cancer; format: cell-based
NCI/ADR-RES = assay: NCI DTP in-vitro dose response, Breast Cancer; format: cell-based

CCc1nc2ccc3c(c2[nH]1)C(=O)c1ccccc1C3=O [No. 4, 2-Ethyl-1(3)H-anthra[1,2-d]imidazole-6,11-dione]
inhibition effect on cancer cell line (Table 2 value) (HOP-92): 41.43 | Percent Growth (PC-3; Log10 Concentration −4.0): 29% | Percent Growth (PC-3; Log10 Concentration −5.0): 54% | Percent Growth (PC-3; Log10 Concentration −6.0): 93% | Percent Growth (PC-3; Log10 Concentration −7.0): 100% | Percent Growth (PC-3; Log10 Concentration −8.0): 96% | TGI (PC-3): >1.00E−4 | inhibition effect on cancer cell line (Table 2 value) (LOX IMV1): 39.98 | inhibition effect on cancer cell line (Table 2 value) (MALME-3M): 56.94 | inhibition effect on cancer cell line (Table 2 value) (SK-MEL-2): 40.07 | inhibition effect on cancer cell line (Table 2 value) (OVCAR-4): 48.81 | GI50 (CCRF-CEM): 10.9 µM | TGI (DU-145): >1.00E−4 | Percent Growth (DU-145; Log10 Concentration −4.0): 24% | Percent Growth (DU-145; Log10 Concentration −5.0): 37% | Percent Growth (DU-145; Log10 Concentration −6.0): 88% | Percent Growth (DU-145; Log10 Concentration −7.0): 98% | Percent Growth (DU-145; Log10 Concentration −8.0): 98%

O=C1c2ccccc2C(=O)c2c1ccc1nsnc21 [No. 22, Anthra[2,1-c][1,2,5]thiadiazole-6,11-dione]
GI50 (SF-268; Homo sapiens, SF-268): 3.55 µM | CC50 (SF-268; Homo sapiens, SF-268, read-out: LC50): > 100 µM | Percent Growth (SF-268; Log10 Concentration −4.0): −46% | Percent Growth (SF-268; Log10 Concentration −5.0): 17% | Percent Growth (SF-268; Log10 Concentration −6.0): 90% | Percent Growth (SF-268; Log10 Concentration −7.0): 98% | Percent Growth (SF-268; Log10 Concentration −8.0): 101% | TGI (SF-268; SF-268): 1.87E−5 | GI50 (OVCAR-8; Homo sapiens, OVCAR-8): 0.859 µM | CC50 (OVCAR-8; Homo sapiens, OVCAR-8, read-out: LC50): > 100 µM | Percent Growth (OVCAR-8; Log10 Concentration −4.0): −38% | Percent Growth (OVCAR-8; Log10 Concentration −5.0): −43% | Percent Growth (OVCAR-8; Log10 Concentration −6.0): 46% | Percent Growth (OVCAR-8; Log10 Concentration −7.0): 102% | Percent Growth (OVCAR-8; Log10 Concentration −8.0): 105% | TGI (OVCAR-8; OVCAR-8): 3.28E−6 | Percent Growth (PC-3; Log10 Concentration −4.0): 4% | Percent Growth (PC-3; Log10 Concentration −5.0): 11% | Percent Growth (PC-3; Log10 Concentration −6.0): 86% | Percent Growth (PC-3; Log10 Concentration −7.0): 92% | Percent Growth (PC-3; Log10 Concentration −8.0): 96% | TGI (PC-3): >1.00E−4 | GI50 (KM12; Homo sapiens, KM12): 11.4 µM | CC50 (KM12; Homo sapiens, KM12, read-out: LC50): 94.8 µM | TGI (KM12; KM12): 3.28E−5 | Percent Growth (KM12; Log10 Concentration −4.0): −53% | Percent Growth (KM12; Log10 Concentration −5.0): 56% | Percent Growth (KM12; Log10 Concentration −6.0): 103% | Percent Growth (KM12; Log10 Concentration −7.0): 108% | Percent Growth (KM12; Log10 Concentration −8.0): 107% | TGI (BT-549; BT-549): 3.55E−5 | GI50 (BT-549; Homo sapiens, BT-549): 13.1 µM | CC50 (BT-549; Homo sapiens, BT-549, read-out: LC50): 96.2 µM | Percent Growth (BT-549; Log10 Concentration −4.0): −52% | Percent Growth (BT-549; Log10 Concentration −5.0): 64% | Percent Growth (BT-549; Log10 Concentration −6.0): 126% | Percent Growth (BT-549; Log10 Concentration −7.0): 102% | Percent Growth (BT-549; Log10 Concentration −8.0): 92% | inhibition effect on cancer cell line (Table 2 value) (LOX IMV1): −50.6 | TGI (CAKI-1; CAKI-1): 6.16E−6 | GI50 (CAKI-1; Homo sapiens, CAKI-1): 2.18 µM | CC50 (CAKI-1; Homo sapiens, CAKI-1, read-out: LC50): 41.5 µM | Percent Growth (CAKI-1; Log10 Concentration −4.0): −66% | Percent Growth (CAKI-1; Log10 Concentration −5.0): −23% | Percent Growth (CAKI-1; Log10 Concentration −6.0): 88% | Percent Growth (CAKI-1; Log10 Concentration −7.0): 95% | Percent Growth (CAKI-1; Log10 Concentration −8.0): 90% | GI50 (TK-10; Homo sapiens, TK-10): 34.9 µM | CC50 (TK-10; Homo sapiens, TK-10, read-out: LC50): > 100 µM | Percent Growth (TK-10; Log10 Concentration −4.0): −7% | Percent Growth (TK-10; Log10 Concentration −5.0): 118% | Percent Growth (TK-10; Log10 Concentration −6.0): 144% | Percent Growth (TK-10; Log10 Concentration −7.0): 133% | Percent Growth (TK-10; Log10 Concentration −8.0): 117% | TGI (TK-10; TK-10): 8.80E−5 | TGI (786-0; 786-0): 1.16E−5 | GI50 (786-0; Homo sapiens, 786-0): 3.93 µM | CC50 (786-0; Homo sapiens, 786-0, read-out: LC50): 52.7 µM | Percent Growth (786-0; Log10 Concentration −4.0): −71% | Percent Growth (786-0; Log10 Concentration −5.0): 5% | Percent Growth (786-0; Log10 Concentration −6.0): 116% | Percent Growth (786-0; Log10 Concentration −7.0): 106% | Percent Growth (786-0; Log10 Concentration −8.0): 105% | GI50 (LOX IMVI; Homo sapiens, LOX IMVI): 1.03 µM | CC50 (LOX IMVI; Homo sapiens, LOX IMVI, read-out: LC50): > 100 µM | TGI (LOX IMVI; LOX IMVI): 3.56E−6 | Percent Growth (LOX IMVI; Log10 Concentration −4.0): −33% | Percent Growth (LOX IMVI; Log10 Concentration −5.0): −42% | Percent Growth (LOX IMVI; Log10 Concentration −6.0): 51% | Percent Growth (LOX IMVI; Log10 Concentration −7.0): 98% | Percent Growth (LOX IMVI; Log10 Concentration −8.0): 101% | GI50 (CCRF-CEM): 2.18 µM | CC50 (CCRF-CEM; read-out: LC50): > 100 µM | TGI (HCC-2998; HCC-2998): 4.20E−6 | GI50 (HCC-2998; Homo sapiens, HCC 2998): 2.12 µM | CC50 (HCC-2998; Homo sapiens, HCC 2998, read-out: LC50): 8.32 µM | Percent Growth (HCC-2998; Log10 Concentration −4.0): −70% | Percent Growth (HCC-2998; Log10 Concentration −5.0): −63% | Percent Growth (HCC-2998; Log10 Concentration −6.0): 105% | Percent Growth (HCC-2998; Log10 Concentration −7.0): 103% | Percent Growth (HCC-2998; Log10 Concentration −8.0): 109% | TGI (DU-145): 1.95E−5 | Percent Growth (DU-145; Log10 Concentration −4.0): −100% | Percent Growth (DU-145; Log10 Concentration −5.0): 41% | Percent Growth (DU-145; Log10 Concentration −6.0): 110% | Percent Growth (DU-145; Log10 Concentration −7.0): 114% | Percent Growth (DU-145; Log10 Concentration −8.0): 110% | TGI (HCT-15; HCT-15): 7.80E−6 | GI50 (HCT-15; Homo sapiens, HCT-15): 2.49 µM | CC50 (HCT-15; Homo sapiens, HCT-15, read-out: LC50): 90.6 µM | Percent Growth (HCT-15; Log10 Concentration −4.0): −52% | Percent Growth (HCT-15; Log10 Concentration −5.0): −11% | Percent Growth (HCT-15; Log10 Concentration −6.0): 90% | Percent Growth (HCT-15; Log10 Concentration −7.0): 104% | Percent Growth (HCT-15; Log10 Concentration −8.0): 110% | GI50 (U251; Homo sapiens, U-251): 1.6 µM | CC50 (U251; Homo sapiens, U-251, read-out: LC50): 8.32 µM | Percent Growth (U251; Log10 Concentration −4.0): −63% | Percent Growth (U251; Log10 Concentration −5.0): −61% | Percent Growth (U251; Log10 Concentration −6.0): 78% | Percent Growth (U251; Log10 Concentration −7.0): 104% | Percent Growth (U251; Log10 Concentration −8.0): 106% | TGI (U251; U251): 3.65E−6 | GI50 (SW-620; Homo sapiens, SW-620): 8.55 µM | CC50 (SW-620; Homo sapiens, SW-620, read-out: LC50): 69.2 µM | Percent Growth (SW-620; Log10 Concentration −4.0): −68% | Percent Growth (SW-620; Log10 Concentration −5.0): 46% | Percent Growth (SW-620; Log10 Concentration −6.0): 107% | Percent Growth (SW-620; Log10 Concentration −7.0): 103% | Percent Growth (SW-620; Log10 Concentration −8.0): 106% | TGI (SW-620; SW-620): 2.52E−5 | GI50 (NCI/ADR-RES; Homo sapiens, NCI/ADR-RES): 0.432 µM | CC50 (NCI/ADR-RES; Homo sapiens, NCI/ADR-RES, read-out: LC50): > 100 µM | Percent Growth (NCI/ADR-RES; Log10 Concentration −4.0): −17% | Percent Growth (NCI/ADR-RES; Log10 Concentration −5.0): −10% | Percent Growth (NCI/ADR-RES; Log10 Concentration −6.0): 20% | Percent Growth (NCI/ADR-RES; Log10 Concentration −7.0): 102% | Percent Growth (NCI/ADR-RES; Log10 Concentration −8.0): 107% | TGI (NCI/ADR-RES; NCI/ADR-RES): 4.80E−6

— US8445492B2, “Method for inhibiting growth of cancer cells and cell telomere and diseases of cell proliferation by using heteroannelated anthraquinone derivative compounds” (National Defense Medical Center, priority 2008, dated 2013)
